In one data set the target is T1, RORγt (Mus musculus, UniProt P51450).
T1 construct: expressed in transfected cells; the other entry of the earlier key: GAL4 (P04386, Regulatory protein GAL4)
Kind of data set: RORγt S2 cell reporter assay (Gal4-RORγt fusion, UAS-luciferase). It counts as cell-based. The source says: Methods: The Drosophila S2 cell line was originally purchased from Invitrogen and was maintained in Schneider's medium supplemented with 10% heat-inactivated bovine fetal calf serum and antibiotics (Invitrogen). […] The resulting chimeric gene was subcloned into the copper inducible pMT/V5-His A vector (available from Invitrogen).
Renilla luciferase construct under the polIII promoter was obtained from Dr. Dasgupta's laboratory (NYU medical center). In order to generate stable cell lines, cells were co-transfected with pMT-G4DBD-RORγt, pMT-G4DBD-RORα, pMT-G4DBD-DHR3, or pMT-G4DBDVP16 and pHygro plasmids (Invitrogen) and screened for resistant colonies in the presence of hygromycin (0.3 mg/mL). […] Using similar methods, stable clones with genomic integration of the luciferase reporters and other reporters were generated such as pMT-RORα_luc, pMT-DHR3_luc, or pMT-VP16_luc.
Methods: 600 G4DBD-RORγ/γt-luc reporter (#25) or G4DBD-VP16-luc reporter cells were distributed into each well of 1,536-well white bottom plates in 4 μl S2 cell culture volume containing hygromicin (300 μg/ml) and puromycin (2 μg/ml). […] After one-hour incubation, 1 of culture medium solution containing copper sulfate (to final 0.7 mM) and 10 μM RORγ/γt antagonists were added to each well. After 20-hour incubation at ambient temperature, 1.5 μl firefly luciferase detection mix was added and the luciferase activities were measured in 10 min. ViewLux luminometers were used for measuring luciferase signal.
A cell-based reporter assay was used to detect RORγt-mediated activity. This assay, called RORγt employed Drosophila Schneider cells that were stably transfected with two vectors: a gene expressing a fusion of the Gal4 DNA binding domain and RORγt transactivation domain under the control of the metallothionine promoter and a Photinus luciferase reporter regulated by the Gal4 binding site enhancer, UAS. […] Cells (600/well) were dispensed into white solid 1536-well plates (Greiner) using a solenoid-based dispenser. Following transfer of […] compound or DMSO vehicle by a pin tool, the plates were incubated 1 hr at ambient temperature, and 1 uL/well copper sulfate (700 uM final concentration) was added. The plates were centrifuged 15 s at 1000 RPM and incubated 20 hr at ambient temperature. After addition of 1.5 uL Photinus luciferase detection reagent, the plates were incubated 10 min at ambient temperature and then read by a ViewLux (Perkin Elmer) to detect luminescence. […] Efficacy is expressed as % of the maximal response of control inhibitor (Digoxin), set at 100%.
(In general: Reporter assays use an easily measured gene product as a stand-in for the process of interest.)

Data set [1] is described as follows: Half-life in Human Liver Microsomes (HLM). It counts as in vitro ADME. As to the method:
Test compounds (1 μM) are incubated with 3.3 mM MgCl2 and 0.78 mg/mL HLM (HL101) in 100 mM potassium phosphate buffer (pH 7.4) at 37° C. on the 96-deep well plate. The reaction mixture is split into two groups, a non-P450 and a P450 group. NADPH is only added to the reaction mixture of the P450 group. An aliquot of samples of the P450 group is collected at 0, 10, 30, and 60 min time points, where the 0 min time point indicated the lime at which NADPH is added into the reaction mixture of the P450 group. […] Collected aliquots are extracted with acetonitrile solution containing an internal standard. […] The compound concentration in supernatant is measured by LC/MS/MS system.
The half-life value is obtained by plotting the natural logarithm of the peak area ratio of compounds/internal standard versus time. The slope of the line of best fit through the points yields the rate of metabolism (k). This is converted to a half-life value using following equations: Half-life=ln 2/k
Background: Liver microsomes are a subcellular fraction often used to study metabolism.

Data set [2] concerns human Th17 cell differentiation. Kind of data set: Human Th17 cell differentiation (FACS, FIG. 2). It counts as cell-based. The conditions noted are these: FIG. 2, FACS, 0.5 μM; listed as NCGC00242624. As to the method:
• 1) S2 cell reporter system: Identified hits from HTS are further screened and their specificity confirmed by testing against RORγ-luc, VP16-luc, RORα-luc, and DHR3-luc reporter S2 cell lines. Compounds either having no activity on VP16, RORα, and DHR3 or having ten times higher IC50 values on such reporters are selected for further tests. • 2) Cytokine induced mouse Th17 cells differentiation. Effects on mouse endogenous RORγt in a relevant physiological setting were determined by testing compounds in the Th17 cell differentiation assay. Compounds having RORγt inhibitory activity are predicted to suppress Th17 cell differentiation. Th1 or regulatory T cell differentiation was used as a counter-screen method to select specific compounds that only affect Th17 cell differentiation without having pleiotrophic effects on general T cell proliferation or cytokine production. • 3) ROR dependent Th17 cell differentiation. Compounds were further tested, by examining their effects on T cells expressing RORα or RORγ. […] Compounds affecting IL17a production or ROR regulatory pathways, however, are expected to inhibit both. • 4) Human Th17 cell differentiation. Compound effects on human RORγt will be tested by treating human cord blood CD4 T cells with select compounds to determine if such compounds alter differentiation into Th17 lineages.
For Th1 differentiation, IL12 (10 ng/ml) and IL2 (100 U/ml) were added to naive CD4 T cell cultures instead of TGFβ and IL6.

Molecules are shown by their SMILES. “Also recorded” adds a separate entry of the source. Read-outs that look alike come from different tables or passages of the source.

T1 sequence (P51450 with tags, fused parts or gaps): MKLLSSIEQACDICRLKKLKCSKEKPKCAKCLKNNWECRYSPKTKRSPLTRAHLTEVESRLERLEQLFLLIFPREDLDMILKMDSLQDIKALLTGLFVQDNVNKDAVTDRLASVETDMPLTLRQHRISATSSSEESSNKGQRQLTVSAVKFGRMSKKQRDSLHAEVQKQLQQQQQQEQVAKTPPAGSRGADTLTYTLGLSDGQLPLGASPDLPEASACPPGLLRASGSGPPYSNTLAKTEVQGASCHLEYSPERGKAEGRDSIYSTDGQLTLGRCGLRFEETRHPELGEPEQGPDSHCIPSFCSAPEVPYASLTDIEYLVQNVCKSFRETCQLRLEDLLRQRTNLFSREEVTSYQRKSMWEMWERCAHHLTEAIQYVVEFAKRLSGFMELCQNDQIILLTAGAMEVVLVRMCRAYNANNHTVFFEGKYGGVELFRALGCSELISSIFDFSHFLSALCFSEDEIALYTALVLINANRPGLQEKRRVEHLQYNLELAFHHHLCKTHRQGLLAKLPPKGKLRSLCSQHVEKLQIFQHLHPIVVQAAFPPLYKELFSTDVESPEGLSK

As for `COc1cc(O)c(C(CC(=O)N2CC(C)CC(C)C2)c2ccc(C(=O)O)cc2)c(OC)c1` (centres unmarked) [Compound 99, 4-(3-(3,5-Dimethylpiperidin-1-yl)-1-(2-hydroxy-4,6-dimethoxyphenyl)-3-oxopropyl)benzoic acid], the IC50 (as a rule, the concentration at which inhibition is half-maximal) on RORγt (Table 1, Drosophila S2 cells, luciferase reporter, read-out: IC50) fell in the range of 1 to 10 µM. For the same molecule, the IC50 at RORγt (Table 2, from the S2 cell reporter assay, listed for comparison, read-out: S2 cell RORg IC50) is < 1 µM. In data set [1] (1 μM compound, 0.78 mg/mL HLM, 37° C., 60 min), the “% Remaining @ 60 min” value stood at 51.36%. For the same molecule, in data set [1] (HLM, Table 3 data), the “stability compared with compounds 150 and 157” value is “better or improved stability over the compounds with IDs 150 and 157”; the “stability compared with verapamil” value is “improved stability with respect to verapamil”. The half-life – broadly, the time in which the quantity being followed falls by half – at 1 μM in data set [1] (human, human liver microsomes, pH 7.4, 1 μM compound, 0.78 mg/mL HLM, 37° C., Half-life=ln 2/k) is 1.07 h. Further, the microsomal CLint at 1 μM in data set [1] (human, human liver microsomes, pH 7.4, 1 μM compound, 0.78 mg/mL HLM, 37° C., read-out: CLint (uM/Min/mg proteins)) was determined as 21.6 µL/min/mg. Moreover, the “human Th17 cell differentiation” value in data set [2] is reported as “selectively suppress human Th17; also recorded: suppresses human Th17 cell differentiation to a degree similar to that of NCGC00238427; also recorded: selectively suppresses human Th17 cell differentiation”.

The record behind these values is patent publication US9765063B2, “Amido compounds as RORγt modulators and uses thereof” (New York University, priority 2011, dated 2017).
